# Molecular target: p38α MAP kinase (Homo sapiens, UniProt Q16539)
# Assay: Assay to determine the inhibition of p38α MAP kinase (phosphorylation of ATF-2, IC50-values)
# Assay type: biochemical
# Settings: ATF-2 coated microtiter plates, 10 ng activated p38α, 100 μM ATP, 1 h at 37° C.; read-out: IC50, inhibition of the phosphorylation of ATF-2 by p38a MAP kinase
# Protocol: Assay to determine the inhibition of p38α MAP kinase (IC50-values)
# Microtiter plates were coated with the p38 MAP kinase substrate ATF-2 by incubating 50 μl of 20 μg/ml ATF-2 for one hour at 37° C. After the plates were washed three times with water, 50 μl of kinase mixture (=50 mM Tris-HCl, 10 mM MgCl2, 10 mM β-glycerol phosphate, 10 μg/ml BSA, 1 mM DTT, 100 μM ATP, 100 μM […], 10 ng activated p38α) without an with increasing inhibitor concentrations were added into the wells and incubated for one hour at 37° C. The plates were washed three times with water and incubated with an anti-phospho-ATF-2 antibody for one hour at 37°. Thereafter, the plates were again washed three times with water and incubated with a goat, alkaline phosphatase-labeled anti-rabbit IgG, for one hour at 37° C. The plates were washed and incubated with 100 μl of a solution containing the phosphatase substrate 4-nitrophenolphosphate (3 mM 4-NPP, 50 mM NaHCO3, 50 mM MgCl2) for 1.5 hours at 37° C. Formation of 4-nitrophenolate was measured at 405 nm using a microtiter plate reader. Based on the inhibitor-concentration/response curves, IC50-values were determined.
# p38α MAP kinase, sequence (Q16539 whole entry): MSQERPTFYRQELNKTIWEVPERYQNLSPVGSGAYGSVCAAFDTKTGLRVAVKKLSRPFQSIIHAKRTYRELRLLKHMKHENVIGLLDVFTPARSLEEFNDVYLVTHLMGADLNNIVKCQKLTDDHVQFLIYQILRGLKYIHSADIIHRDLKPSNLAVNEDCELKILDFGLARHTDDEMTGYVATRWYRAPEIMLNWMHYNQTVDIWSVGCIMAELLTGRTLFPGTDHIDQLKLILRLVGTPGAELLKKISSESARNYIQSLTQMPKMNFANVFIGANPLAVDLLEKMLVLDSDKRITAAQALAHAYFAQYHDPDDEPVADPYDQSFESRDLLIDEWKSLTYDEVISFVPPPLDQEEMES
row,IC50,SMILES
1,< 1000 nM,"COCCn1c(SC)nc(-c2ccc(F)cc2)c1-c1ccnc(NC2CCC(O)CC2)c1 (centres unmarked) [Example 16, 4-{4-[5-(4-Fluoro-phenyl)-3-(2-methoxy-ethyl)-2-methylsulfanyl-3H-imidazol-4-yl]-pyridin-2-ylamino}-cyclohexanol]"
2,1000 to 10000 nM,"COCCn1c(SC)nc(-c2ccc(F)cc2)c1-c1ccnc(NCC(C)=O)c1 [Example 26, 1-{4-[5-(4-Fluoro-phenyl)-3-(2-methoxy-ethyl)-2-methylsulfanyl-3H-imidazol-4-yl]-pyridin-2-ylamino}-propan-2-one]"
3,1000 to 10000 nM,CSc1nc(-c2ccc(F)cc2)c(-c2ccnc(NC3CC(C)(C)NC(C)(C)C3)c2)n1C [Example 3]
4,1000 to 10000 nM,"CSc1nc(-c2ccc(F)cc2)c(-c2ccnc(NC3CCCCC3O)c2)n1C (centres unmarked) [Example 17, 2-{4-[5-(4-Fluoro-phenyl)-3-methyl-2-methylsulfanyl-3H-imidazol-4-yl]-pyridin-2-ylamino}-cyclohexanol]"
5,< 1000 nM,"CSc1nc(-c2ccc(F)cc2)c(-c2ccnc(NCC(C)O)c2)n1C (centres unmarked) [Example 13, 1-{4-[5-(4-Fluoro-phenyl)-3-methyl-2-methylsulfanyl-3H-imidazol-4-yl]-pyridin-2-ylamino}-propan-2-ol]"
6,> 10000 nM,"CCN1CCCC1CNc1cc(-c2c(-c3ccc(F)cc3)nc(SC)n2C)ccn1 (centres unmarked) [Example 1, (1-Ethyl-pyrrolidin-2-ylmethyl)-{4-[5-(4-fluoro-phenyl)-3-methyl-2-methylsulfanyl-3H-imidazol-4-yl]-pyridin-2-yl}-amine]"
7,> 10000 nM,COCCn1c([S+](C)[O-])nc(-c2ccc(F)cc2)c1-c1ccnc(NC2CC(C)(C)NC(C)(C)C2)c1 (centres unmarked) [Example 10]
8,< 1000 nM,"COCCn1c(SC)nc(-c2ccc(F)cc2)c1-c1ccnc(NC2CC(C)(C)NC(C)(C)C2)c1 [Example 4, {4-[5-(4-Fluoro-phenyl)-3-(2-methoxy-ethyl)-2-methylsulfanyl-3H-imidazol-4-yl]-pyridin-2-yl}-(2,2,6,6-tetramethyl-piperidin-4-yl)-amine]"
9,< 1000 nM,"COCCn1c(SC)nc(-c2ccc(F)cc2)c1-c1ccnc(NC(=O)C2CCOCC2)c1 [Example 32, Tetrahydro-pyran-4-carboxylic acid {4-[5-(4-fluoro-phenyl)-3-(2-methoxy-ethyl)-2-methylsulfanyl-3H-imidazol-4-yl]-pyridin-2-yl}-amide]"
10,< 1000 nM,COCCn1c(SC)nc(-c2ccc(F)cc2)c1-c1ccnc(NCC2CCCCC2O)c1 (centres unmarked) [35 (1)]
11,< 1000 nM,"COCCn1c([S+](C)[O-])nc(-c2ccc(F)cc2)c1-c1ccnc(NC(=O)C2CCOCC2)c1 (centres unmarked) [Example 33, Tetrahydro-pyran-4-carboxylic acid {4-[5-(4-fluoro-phenyl)-2-methanesulfinyl-3-(2-methoxy-ethyl)-3H-imidazol-4-yl]-pyridin-2-yl}-amide]"
12,1000 to 10000 nM,"CSc1nc(-c2ccc(F)cc2)c(-c2ccnc(NC3CCC(=O)CC3)c2)n1C [Example 27, 4-{4-[5-(4-Fluoro-phenyl)-3-methyl-2-methylsulfanyl-3H-imidazol-4-yl]-pyridin-2-ylamino}-cyclohexanone]"
13,< 1000 nM,"COCCn1c(SC)nc(-c2ccc(F)cc2)c1-c1ccnc(NCC(C)O)c1 (centres unmarked) [Example 14, 1-{4-[5-(4-Fluoro-phenyl)-3-(2-methoxy-ethyl)-2-methylsulfanyl-3H-imidazol-4-yl]-pyridin-2-ylamino}-propan-2-ol]"
14,< 1000 nM,"CSc1nc(-c2ccc(F)cc2)c(-c2ccnc(NC3CCCCC3=O)c2)n1C (centres unmarked) [Example 28, 2-{4-[5-(4-Fluoro-phenyl)-3-methyl-2-methylsulfanyl-3H-imidazol-4-yl]-pyridin-2-ylamino}-cyclohexanone]"
15,> 10000 nM,"Cn1c([S+](C)[O-])nc(-c2ccc(F)cc2)c1-c1ccnc(NC2CC(C)(C)NC(C)(C)C2)c1 (centres unmarked) [Example 9, {4-[5-(4-Fluoro-phenyl)-2-methanesulfinyl-3-methyl-3H-imidazol-4-yl]-pyridin-2-yl}-(2,2,6,6-tetramethyl-piperidin-4-yl)-amine]"
16,1000 to 10000 nM,"COCCn1c([S+](C)[O-])nc(-c2ccc(F)cc2)c1-c1ccnc(NC2CCCCC2O)c1 (centres unmarked) [Example 25, 2-{4-[5-(4-Fluoro-phenyl)-2-methanesulfinyl-3-(2-methoxy-ethyl)-3H-imidazol-4-yl]-pyridin-2-ylamino}-cyclohexanol]"

row,IC50,SMILES
1,< 1000 nM,"CSc1nc(-c2ccc(F)cc2)c(-c2ccnc(NC3CCCCC3O)c2)n1C (centres unmarked) [Example 18, 2-{4-[5-(4-Fluoro-phenyl)-3-methyl-2-methylsulfanyl-3H-imidazol-4-yl]-pyridin-2-ylamino}-cyclohexanol]"
2,1000 to 10000 nM,COCCn1c(S(C)(=O)=O)nc(-c2ccc(F)cc2)c1-c1ccnc(NC2CCCCC2O)c1 (centres unmarked) [35 (4)]
3,< 1000 nM,COCCn1c(SC)nc(-c2ccc(F)cc2)c1-c1ccnc(NC2CCCCC2O)c1 (centres unmarked) [Example 35 (2)]
4,< 1000 nM,"COCCn1c([S+](C)[O-])nc(-c2ccc(F)cc2)c1-c1ccnc(NC2CCC(O)CC2)c1 (centres unmarked) [Example 23, 4-{4-[5-(4-Fluoro-phenyl)-2-methanesulfinyl-3-(2-methoxy-ethyl)-3H-imidazol-4-yl]-pyridin-2-ylamino}-cyclohexanol]"
5,1000 to 10000 nM,"COCCn1c([S+](C)[O-])nc(-c2ccc(F)cc2)c1-c1ccnc(NC2CCN(Cc3ccccc3)CC2)c1 (centres unmarked) [Example 12, (1-Benzyl-piperidin-4-yl)-{4-[5-(4-fluoro-phenyl)-2-methanesulfinyl-3-(2-methoxy-ethyl)-3H-imidazol-4-yl]-pyridin-2-yl}-amine]"
6,> 10000 nM,"Cn1c([S+](C)[O-])nc(-c2ccc(F)cc2)c1-c1ccnc(NC2CCN(Cc3ccccc3)CC2)c1 (centres unmarked) [Example 11, (1-Benzyl-piperidin-4-yl)-{4-[5-(4-fluoro-phenyl)-2-methanesulfinyl-3-methyl-3H-imidazol-4-yl]-pyridin-2-yl}-amine]"
7,1000 to 10000 nM,"COCCn1c([S+](C)[O-])nc(-c2ccc(F)cc2)c1-c1ccnc(NCC(C)O)c1 (centres unmarked) [Example 21, 1-{4-[5-(4-Fluoro-phenyl)-2-methanesulfinyl-3-(2-methoxy-ethyl)-3H-imidazol-4-yl]-pyridin-2-ylamino}-propan-2-ol]"
8,< 1000 nM,"Cn1c([S+](C)[O-])nc(-c2ccc(F)cc2)c1-c1ccnc(NC2CCC(O)CC2)c1 (centres unmarked) [Example 22, 4-{4-[5-(4-Fluoro-phenyl)-2-methanesulfinyl-3-methyl-3H-imidazol-4-yl]-Pyridin-2-ylamino}-cyclohexanol]"
9,1000 to 10000 nM,"Cn1c([S+](C)[O-])nc(-c2ccc(F)cc2)c1-c1ccnc(NC2CCCCC2O)c1 (centres unmarked) [Example 24, 2-{4-[5-(4-Fluoro-phenyl)-2-methanesulfinyl-3-methyl-3H-imidazol-4-yl]pyridin-2-ylamino}-cyclohexanol]"
10,1000 to 10000 nM,"COCCn1c(SC)nc(-c2ccc(F)cc2)c1-c1ccnc(NC2CCN(Cc3ccccc3)CC2)c1 [Example 6, (1-Benzyl-piperidin-4-yl)-{4-[5-(4-fluoro-phenyl)-3-(2-methoxy-ethyl)-2-methylsulfanyl-3H-imidazol-4-yl]-pyridin-2-yl}-amine]"
11,> 10000 nM,"CCN1CCCC1CNc1cc(-c2c(-c3ccc(F)cc3)nc([S+](C)[O-])n2C)ccn1 (centres unmarked) [Example 7, (1-Ethyl-pyrrolidin-2-ylmethyl)-{4-[5-(4-fluoro-phenyl)-2-methanesulfinyl-3-methyl-3H-imidazol-4-yl]-pyridin-2-yl}-amine]"
12,1000 to 10000 nM,"COCCn1c(SC)nc(-c2ccc(F)cc2)c1-c1ccnc(NC2CCCCC2O)c1 (centres unmarked) [Example 19, 2-{4-[5-(4-Fluoro-phenyl)-3-(2-methoxy-ethyl)-2-methylsulfanyl-3H-imidazol-4-yl]-pyridin-2-ylamino}-cyclohexanol]"
13,< 1000 nM,"CSc1nc(-c2ccc(F)cc2)c(-c2ccnc(NC3CCC(O)CC3)c2)n1C (centres unmarked) [Example 15, 4-{4-[5-(4-Fluoro-phenyl)-3-methyl-2-methylsulfanyl-3H-imidazol-4-yl]-pyridin-2-ylamino}-cyclohexanol]"
14,> 10000 nM,"CC(O)CNc1cc(-c2c(-c3ccc(F)cc3)nc([S+](C)[O-])n2C)ccn1 (centres unmarked) [Example 20, 1-{4-[5-(4-Fluoro-phenyl)-2-methanesulfinyl-3-methyl-3H-imidazol-4-yl]-pyridin-2-ylamino}-propan-2-ol]"
15,1000 to 10000 nM,"CSc1nc(-c2ccc(F)cc2)c(-c2ccnc(NC3CCN(Cc4ccccc4)CC3)c2)n1C [Example 5, (1-Benzyl-piperidin-4-yl)-{4-[5-(4-fluoro-phenyl)-3-methyl-2-methylsulfanyl-3H-imidazol-4-yl]-pyridin-2-yl}-amine]"
16,< 1000 nM,CCN1CCCC1CNc1cc(-c2c(-c3ccc(F)cc3)nc(SC)n2CCOC)ccn1 (centres unmarked) [Example 2]

# Reference: patent publication US20100069436A1, “IMIDAZOLE COMPOUNDS HAVING AN ANTIINFLAMMATORY EFFECT” (Merckle, priority 2006, published 2010)
